Laboratory results published in publication PMC8457654 (European Journal of Medicinal Chemistry, 2021).
Where a SMILES comes first, the peptide text is derived from it. [ ]: non-standard residue; d: D form. The star is where a group is joined. AllylGly = C=CC[C@H](N)C(=O)O; Boc = CC(C)(C)OC(=O)*; NHBn = c1ccc(CN*)cc1; NHtBu = CC(C)(C)N*; ClAc = O=C(CCl)*

Key:
[1] = molecular target: SARS-CoV-2 PL^pro (Severe acute respiratory syndrome coronavirus 2, UniProt P0DTD1); assay: PL^pro enzymatic assay; assay type: biochemical
[2] = test system: SARS-CoV-2 UC-1075 strain; assay: SARS-CoV-2 antiviral assay in Vero cells, strain UC-1075; assay type: cell-based; conditions: Severe acute respiratory syndrome coronavirus 2, UC1075, Vero, 120 h, read-out: Antiviral activity EC50 UC-1075 #1 strain Vero cells
[3] = test system: varicella zoster virus; assay: Antiviral activity over Vero cells infected with VZV; assay type: cell-based; conditions: data not shown
[4] = test system: cytomegalovirus; assay: Antiviral activity over Vero cells infected with CMV; assay type: cell-based; conditions: data not shown
[5] = test system: SARS-CoV-2 UC-1074 strain; assay: SARS-CoV-2 antiviral assay in Vero cells, strain UC-1074; assay type: cell-based; conditions: over two different SARS-CoV-2 strains as worded

Structure (SMILES) | IC50 [1] [µM] | also measured
CC(C)(C)NC(=O)[C@H](Cc1c[nH]c2ccccc12)NC(=O)[C@@H]1CCCN1C(=O)OC(C)(C)C [Compound 7, tert-butyl 2-((1-(tert-butylamino)-3-(1H-indol-3-yl)-1-oxopropan-2-yl)carbamoyl)pyrrolidine-1-carboxylate] (Boc-Pro-Trp-NHtBu) | > 25 | –
CC(C)(C)NC(=O)[C@H](Cc1c[nH]c2ccccc12)NC(=O)[C@H](Cc1ccccc1)NCc1ccc(-c2ccccc2)cc1 [Compound 22, (S)-2-(([1,1′-biphenyl]-4-ylmethyl)amino)-N-((S)-1-(tert-butylamino)-3-(1H-indol-3-yl)-1-oxopropan-2-yl)-3-phenylpropanamide] | > 25 | –
CC(C)C[C@H](NCc1ccc(-c2ccccc2)cc1)C(=O)N[C@@H](Cc1c[nH]c2ccccc12)C(=O)NC(C)(C)C [Compound 23, 2-(([1,1′-biphenyl]-4-ylmethyl)amino)-N-(1-(tert-butylamino)-3-(1H-indol-3-yl)-1-oxopropan-2-yl)-4-methylpentanamide] | > 25 | –
C#CC[C@H](NCc1ccc(-c2ccccc2)cc1)C(=O)N[C@@H](Cc1c[nH]c2ccccc12)C(=O)NC(C)(C)C [Compound 24, (S)-2-(([1,1′-biphenyl]-4-ylmethyl)amino)-N-((S)-1-(tert-butylamino)-3-(1H-indol-3-yl)-1-oxopropan-2-yl)pent-4-ynamide] | > 25 | –
CC(C)C[C@H](NCc1ccc(-c2ccccc2)cc1)C(=O)N[C@@H](Cc1c[nH]c2ccccc12)C(=O)NCc1ccccc1 [Compound 25, (S)-2-(([1,1′-biphenyl]-4-ylmethyl)amino)-N-((S)-1-(benzylamino)-3-(1H-indol-3-yl)-1-oxopropan-2-yl)-4-methylpentanamide] | > 25 | EC50 [2]: > 20 µM
C=CC[C@H](NCc1ccccc1)C(=O)N[C@@H](Cc1c[nH]c2ccccc12)C(=O)NCc1ccc(-c2ccccc2)cc1 [Compound 26, (S)–N-((S)-1-(([1,1′-biphenyl]-4-ylmethyl)amino)-3-(1H-indol-3-yl)-1-oxopropan-2-yl)-2-(benzylamino)pent-4-enamide] | > 25 | –
C#CC[C@H](NCc1ccccc1)C(=O)N[C@@H](Cc1c[nH]c2ccccc12)C(=O)NCc1ccc(-c2ccccc2)cc1 [Compound 27, (S)–N-((S)-1-(([1,1′-biphenyl]-4-ylmethyl)amino)-3-(1H-indol-3-yl)-1-oxopropan-2-yl)-2-(benzylamino)pent-4-ynamide] | > 25 | Antiviral effect over varicella zoster virus [3]: no effects; Antiviral effect over cytomegalovirus [4]: no effects
C#CC[C@H](NCCC)C(=O)N[C@@H](Cc1c[nH]c2ccccc12)C(=O)NCc1ccc(-c2ccccc2)cc1 [Compound 28, (S)–N-((S)-1-(([1,1′-biphenyl]-4-ylmethyl)amino)-3-(1H-indol-3-yl)-1-oxopropan-2-yl)-2-(propylamino)pent-4-ynamide] | > 25 | –
C=CC[C@H](NC(=O)CCl)C(=O)N[C@@H](Cc1c[nH]c2ccccc12)C(=O)NCc1ccccc1 [Compound 29, (S)–N-((S)-1-(benzylamino)-3-(1H-indol-3-yl)-1-oxopropan-2-yl)-2-(2-chloroacetamido)pent-4-enamide] (ClAc-[AllylGly]-Trp-NHBn) | – | Cellular antiviral potency relative to compound 27 (fold higher) [5]: 28 fold; Antiviral effect over varicella zoster virus [3]: no effects; Antiviral effect over cytomegalovirus [4]: no effects
C#CC[C@H](NC(=O)OC(C)(C)C)C(=O)N(Cc1ccccc1)Cc1cn(C)c2ccc(C(=O)OC)cc12 [Compound 35, (S)-Methyl 3-((N-benzyl-2-((tert-butoxycarbonyl)amino)pent-4-ynamido)methyl)-1-methyl-1H-indole-5-carboxylate] | > 25 | –
